Test results as given in PubChem BioAssay (NCI).
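All cell lines were grown in 96-well plates and treated with compound for 48 hours. TGI denotes the concentration required for complete inhibition of growth.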

Legend:
Assay in all cases: growth of human tumour cells (NCI), 48 h
CCRF-CEM leukemia = system: CCRF-CEM leukemia
HCC-2998 colon = system: HCC-2998 colon
RXF 393 renal = system: RXF 393 renal
MCF7 breast = system: MCF7 breast
HOP-18 NSCLC = system: HOP-18 NSCLC
MOLT-4 leukemia = system: MOLT-4 leukemia
U251 CNS = system: U251 CNS
SF-539 CNS = system: SF-539 CNS
OVCAR-3 ovarian = system: OVCAR-3 ovarian
OVCAR-4 ovarian = system: OVCAR-4 ovarian
786-0 renal = system: 786-0 renal
A549 NSCLC = system: A549 NSCLC
XF 498 CNS = system: XF 498 CNS
KM20L2 colon = system: KM20L2 colon
DLD-1 colon = system: DLD-1 colon
M14 melanoma = system: M14 melanoma
LOX IMVI melanoma = system: LOX IMVI melanoma
MALME-3M melanoma = system: MALME-3M melanoma
SNB-19 CNS = system: SNB-19 CNS
NCI-H522 lung = system: NCI-H522 lung
SK-MEL-5 melanoma = system: SK-MEL-5 melanoma
HCT-116 colon = system: HCT-116 colon
NCI-H23 lung = system: NCI-H23 lung
PC-3 prostate = system: PC-3 prostate
A498 renal = system: A498 renal
BT-549 breast = system: BT-549 breast
CAKI-1 renal = system: CAKI-1 renal
RPMI-8226 leukemia = system: RPMI-8226 leukemia
TK-10 renal = system: TK-10 renal
SF-295 CNS = system: SF-295 CNS
ACHN renal = system: ACHN renal
SN12C renal = system: SN12C renal
UACC-257 melanoma = system: UACC-257 melanoma
OVCAR-8 ovarian = system: OVCAR-8 ovarian
RXF-631 renal = system: RXF-631 renal
NCI-H460 lung = system: NCI-H460 lung
HOP-92 NSCLC = system: HOP-92 NSCLC
OVCAR-5 ovarian = system: OVCAR-5 ovarian
NCI-H226 lung = system: NCI-H226 lung
HCT-15 colon = system: HCT-15 colon
K-562 leukemia = system: K-562 leukemia
SF-268 CNS = system: SF-268 CNS
IGROV1 ovarian = system: IGROV1 ovarian
UACC-62 melanoma = system: UACC-62 melanoma
COLO 205 colon = system: COLO 205 colon
T-47D breast = system: T-47D breast
SNB-75 CNS = system: SNB-75 CNS
HS 578T breast = system: HS 578T breast
HL-60(TB) leukemia = system: HL-60(TB) leukemia
SK-MEL-2 melanoma = system: SK-MEL-2 melanoma
MDA-MB-231 breast = system: MDA-MB-231 breast
SK-MEL-28 melanoma = system: SK-MEL-28 melanoma
DMS 273 small cell lung = system: DMS 273 small cell lung
KM12 colon = system: KM12 colon
EKVX NSCLC = system: EKVX NSCLC
UO-31 renal = system: UO-31 renal
DU-145 prostate = system: DU-145 prostate
NCI/ADR-RES ovarian = system: NCI/ADR-RES ovarian
MDA-MB-435 = system: MDA-MB-435
MDA-N = system: MDA-N
HOP-62 NSCLC = system: HOP-62 NSCLC
SW-620 colon = system: SW-620 colon
HT29 colon = system: HT29 colon
SK-OV-3 ovarian = system: SK-OV-3 ovarian
SR leukemia = system: SR leukemia
LXFL 529 NSCLC = system: LXFL 529 NSCLC

CCCCCCCCCCCCCCCCSS(C)(=O)=O
TGI (CCRF-CEM leukemia): 18.4 µM | TGI (HCC-2998 colon): > 72.5 µM | TGI (RXF 393 renal): 10.9 µM | TGI (MCF7 breast): > 100 µM | TGI (HOP-18 NSCLC): > 100 µM | TGI (MOLT-4 leukemia): 6.77 µM | TGI (U251 CNS): > 100 µM | TGI (SF-539 CNS): > 56.4 µM | TGI (OVCAR-3 ovarian): 31.2 µM | TGI (OVCAR-4 ovarian): 54.7 µM | TGI (786-0 renal): 27 µM | TGI (A549 NSCLC): > 80.3 µM | TGI (XF 498 CNS): 16.9 µM | TGI (KM20L2 colon): > 66.1 µM | TGI (DLD-1 colon): 37.7 µM | TGI (M14 melanoma): 25.2 µM | TGI (LOX IMVI melanoma): 19.3 µM | TGI (MALME-3M melanoma): 24.9 µM | TGI (SNB-19 CNS): > 100 µM | TGI (NCI-H522 lung): 11 µM | TGI (SK-MEL-5 melanoma): 59 µM | TGI (HCT-116 colon): 43.5 µM | TGI (NCI-H23 lung): > 75.8 µM | TGI (PC-3 prostate): > 100 µM | TGI (A498 renal): > 97.2 µM | TGI (BT-549 breast): > 100 µM | TGI (CAKI-1 renal): 26.1 µM | TGI (RPMI-8226 leukemia): 14.1 µM | TGI (TK-10 renal): 52.9 µM | TGI (SF-295 CNS): > 100 µM | TGI (ACHN renal): 32.3 µM | TGI (SN12C renal): > 69.5 µM | TGI (UACC-257 melanoma): > 93.5 µM | TGI (OVCAR-8 ovarian): 58.7 µM | TGI (RXF-631 renal): 35.6 µM | TGI (NCI-H460 lung): > 75.2 µM | TGI (HOP-92 NSCLC): 37.9 µM | TGI (OVCAR-5 ovarian): > 100 µM | TGI (NCI-H226 lung): > 35.3 µM | TGI (HCT-15 colon): 39.2 µM | TGI (K-562 leukemia): 27.9 µM | TGI (SF-268 CNS): > 35.9 µM | TGI (IGROV1 ovarian): > 61.3 µM | TGI (UACC-62 melanoma): > 57.5 µM | TGI (COLO 205 colon): 47.4 µM | TGI (T-47D breast): 24.1 µM | TGI (SNB-75 CNS): 32.6 µM | TGI (HS 578T breast): > 100 µM | TGI (HL-60(TB) leukemia): 11.6 µM | TGI (SK-MEL-2 melanoma): > 42.4 µM | TGI (MDA-MB-231 breast): > 100 µM | TGI (SK-MEL-28 melanoma): 25.4 µM | TGI (DMS 273 small cell lung): 42.7 µM | TGI (KM12 colon): > 100 µM | TGI (EKVX NSCLC): > 100 µM | TGI (UO-31 renal): 35.7 µM | TGI (DU-145 prostate): > 100 µM | TGI (NCI/ADR-RES ovarian): 7.05 µM | TGI (MDA-MB-435): > 100 µM | TGI (MDA-N): > 100 µM | TGI (HOP-62 NSCLC): > 100 µM | TGI (SW-620 colon): 13.2 µM | TGI (HT29 colon): > 69.6 µM | TGI (SK-OV-3 ovarian): > 100 µM | TGI (SR leukemia): 21.1 µM | TGI (LXFL 529 NSCLC): 26.3 µM
